{"source": "paper PMC10259451", "about": "(Journal of Medicinal Chemistry, 2023)", "key": {"L. mexicana [1]": {"test_system": "L. mexicana", "details": "administered orally; cited from earlier work"}, "[2]": {"test_system": "L. mexicana intracellular amastigotes", "format": "cell-based, Leishmania mexicana"}, "[3]": {"test": "Kinetic aqueous solubility", "format": "physicochemical", "details": "pH 7.4, Sol. (aqueous solubility)"}, "L. mexicana [4]": {"test_system": "L. mexicana", "test": "Murine model of cutaneous leishmaniasis, footpad lesion size", "format": "in vivo, BALB/c mice", "details": "PO 50mg/kg/day for 10 days; p < 0.0001, Mann–Whitney"}}}
{"smiles": "Cc1ccc(-c2nc3ccccc3s2)cc1NC(=O)c1cc([N+](=O)[O-])c(N2CCN(C)CC2)cc1Cl", "note": "[compound 4]", "values": [{"measurement": "efficacy in murine model of cutaneous leishmaniasis", "setting": "L. mexicana [1]", "result": "less efficacious than the positive control, miltefosine"}]}
{"smiles": "Cc1ccc(-c2nc3ccccc3s2)cc1NC(=O)c1ccc(F)c([N+](=O)[O-])c1", "note": "[compound 10]", "values": [{"measurement": "antileishmanial activity in words", "setting": "[2]; L. mexicana amastigotes", "result": "active"}]}
{"smiles": "O=C(Nc1cccc(-c2ncco2)c1)c1cc([N+](=O)[O-])c(F)cc1F", "note": "[compound 71]", "values": [{"measurement": "solubility", "setting": "[3]", "result": "~9", "unit": "µM"}]}
{"smiles": "O=C(Nc1ccc(Cl)c(Cl)c1)c1ccc(N2CCNCC2)c([N+](=O)[O-])c1", "note": "[compound 79]", "values": [{"measurement": "lesion size vs vehicle", "setting": "L. mexicana [4]", "result": "significantly smaller lesions at weeks 4 and 5"}, {"measurement": "EC50", "setting": "[2]; Leishmania mexicana, J774.A1, read-out: L. mexicana EC50, intracellular amastigotes in J774A.1 macrophages, mean ± SD, at least three experiments", "result": 660, "unit": "nM"}]}
